In patent US20260138959A1, “QUINAZOLINE DERIVATIVE COMPOUND AND USE THEREOF” (VORONOI INC., priority 2021, published 2026):

Experiments:
Ba/F3-c-KIT(D816V) = experiment: Proliferation inhibitory activity on Ba/F3 cell (CellTiter-Glo, 72 hours), c-KIT(D816V); type: cell-based; settings: Mus musculus, BaF3, read-out: Ba/F3 (nM) c-KIT (D816V) (GI50 class)
Method in brief: (§1)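 Cells seeded (3×10^3/well), then twelve 3-fold compound concentrations added to 0.00005-10 μM final alongside DMSO control. Plates incubated 72 h at 37 °C. CellTiter-Glo reagent mixed in for ~10 min at room temperature before reading; GI50 fitted from vehicle-normalised data.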

human PDGFR-β(wt) = target: T1, human PDGFR-β(wt) (Homo sapiens, UniProt P09619); experiment: Enzyme inhibitory activity, ADP-Glo kinase assay, PDGFR-β(wt); type: biochemical; settings: read-out: PDGFR-β (IC50 class)
T1 construct: purchased Signalchem P13-11G
Method in brief: (§2)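 Purified human kinases incubated with ATP and substrate 1–2 h at 25 °C in 40 mM Tris-HCl pH 7.4, 20 mM MgCl2, BSA, DTT, compound over 12 concentrations (10–0.00005645 μM final). ADP formed quantified by ADP-Glo luminescence; IC50 from inhibition versus DMSO control, reported in bins A–D.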

human c-KIT(wt) = target: T2, human c-KIT(wt) (Homo sapiens, UniProt P10721); experiment: Enzyme inhibitory activity, ADP-Glo kinase assay, c-KIT(wt); type: biochemical; settings: read-out: c-KIT (WT) (IC50 class)
T2 construct: purchased Signalchem K06-11BG
Method: (§3) In order to evaluate the inhibitory activity of the compounds synthesized according to the above examples on PDGFR-α(wt), PDGFR-β(wt), c-KIT(wt), and c-KIT(D816V) kinases, the following method was performed. The compounds of examples were reacted with purified human PDGFR-α(wt) (Signalchem #P12-18G) enzyme, human PDGFR-β(wt) (Signalchem #P13-11G) enzyme, human c-KIT(wt) (Signalchem #K06-11BG) enzyme, human c-KIT(D816V) (Signalchem #C06-12LG) enzyme, and the enzyme inhibitory abilities were evaluated by the following method.
(§4) The reaction buffer was used as a composition of 40 mM Tris-HCl pH7.4, 20 mM MgCl2, 0.5 mg/ml BSA, 50 μM DTT, and the reactions of all the tests were carried out on the reaction buffer. The compound was diluted in 12 steps using a serial dilution method from a 10 mM DMSO stock, and the enzyme activity was measured at a final compound concentration of 10˜0.00005645 μM. During the test, the enzyme activity was confirmed using in vitro ADP-Glo™ kinase assay (Promega) after reacting with the proper concentration of human PDGFR-α(wt) enzyme, human PDGFR-β(wt), human c-KIT(wt) enzyme, and human c-KIT(D816V) enzyme with purified ATP and enzyme substrate at 25° C. for 1˜2 hours. At a ratio of 2:2:1, an enzyme-active reaction solution, an ADP-Glo reaction solution, and an enzyme-active detection solution were reacted to measure the inhibition of the enzyme's activity with luminoscence. Based on the […] of the enzyme activity of the solvent control that was not treated with the compound, the degree of enzyme activity inhibition was calculated according to the treatment concentration of each compound, and the concentration of each compound that inhibits 50% of enzyme activity was determined as IC50 (nM) value and the value was obtained by using GraphPad Prism 8.3.0 (GraphPad software Inc., San Diego) software. (A: IC50≤50 nM; B: 50 nM<IC50≤100 nM; C: 100 nM<IC50≤500 nM; D: IC50>500 nM).

Ba/F3-TEL-PDGFRα(WT) = experiment: Proliferation inhibitory activity on Ba/F3 cell (CellTiter-Glo, 72 hours), PDGFR-α; type: cell-based; settings: Mus musculus, BaF3, read-out: Ba/F3 (nM) Tel-PDGFRα (GI50 class)
Method in brief: as §1

c-KIT D816V [1] = target: T3, c-KIT D816V (Homo sapiens, UniProt P10721, D816V); experiment: Enzyme inhibitory activity, ADP-Glo kinase assay, c-KIT(D816V); type: biochemical; set-up: purchased Signalchem C06-12LG; settings: read-out: c-KIT (D816V) (IC50 class)
Method: as §3, §4

human PDGFR-α(wt) = target: T4, human PDGFR-α(wt) (Homo sapiens, UniProt P16234); experiment: Enzyme inhibitory activity, ADP-Glo kinase assay, PDGFR-α(wt); type: biochemical; settings: read-out: PDGFR-α (IC50 class)
T4 construct: purchased Signalchem P12-18G
Method in brief: as §2

c-KIT V560G/D816V = experiment: Proliferation inhibitory activity on Ba/F3 cell (CellTiter-Glo, 72 hours), c-KIT V560G/D816V; type: cell-based; settings: Mus musculus, BaF3, c-KIT V560G/D816V cells, read-out: Cell (nM) c-KIT V560G/D816V (GI50 class)
Method in brief: as §1

Ba/F3-TEL-PDGFβ(WT) = experiment: Proliferation inhibitory activity on Ba/F3 cell (CellTiter-Glo, 72 hours), PDGFR-β; type: cell-based; settings: Mus musculus, BaF3, read-out: Ba/F3 (nM) Tel-PDGFRβ (GI50 class)
Method in brief: as §1

c-KIT D814Y = experiment: Proliferation inhibitory activity on Ba/F3 cell (CellTiter-Glo, 72 hours), c-KIT D814Y; type: cell-based; settings: Mus musculus, BaF3, c-KIT D814Y cells, read-out: Cell (nM) c-KIT D814Y (GI50 class)
Method: Ba/F3-TEL-PDGFRα(WT), Ba/F3-TEL-PDGFβ(WT), Ba/F3-c-KIT(D816V) (Kyinno, #KC-0138), c-KIT V560G/D816V, c-KIT D814Y were seeded at 3×10^3/100 μl/well in a clear bottom white 96-well plate. A culture solution containing compounds of 12 concentrations (0.00001-2 mM) serially diluted in 3 folds and the DMSO control group was added at 0.5 μl/well each to a final concentration of 0.00005-10 μM, and then incubated in a CO2 incubator at 37° C. for 72 hours. After 72 hours, the plate treated with the compound was taken out, CellTiter-Glo® Assay (Promega) solution was treated with 100 μl/well, followed by mixing well. After mixing well for about 10 minutes at room temperature, […] was measured using a microplate reader. The data were presented as percentages in proportion to treated cells based on the vehicle, GI50 (nM) values were calculated using GraphPad Prism 8.3.0 (GraphPad software Inc., San Diego).
The inhibitory activities of Ba/F3 expressing PDGFR-α, PDGFR-β, c-KIT(D816V), c-KIT V560G/D816V, and c-KIT D814Y measured as described above were measured and shown in Table 7 below (A: GI50≤200 nM; B: 200 nM<GI50≤500 nM; C: GI50>500 nM).

various kinases = experiment: Inhibitory activity against various kinases, DiscoverX scanMAX Kinase panel, % control at 1 μM; type: binding
Method: The activities of the compounds according to the present disclosure on various enzymes were evaluated. Specifically, it was commissioned DiscoverX to measure enzyme selectivity for the compounds of Examples 3, 9, and 83 above, and the experiment was conducted using a panel for scanMAX™ Kinase analysis. Herein, a solution prepared by dissolving in DMSO at a concentration of 1 μM was used as the drug treated with the enzyme, and the control percentage (% control) was determined by the method of Equation 1 below, and the results are shown in Table 8 below.
Herein, when the calculated percentage value for each enzyme was less than 35%, it was determined to have inhibitory activity for the enzyme. Accordingly, among the series of enzymes tested, the enzymes showing the inhibitory activities of the compounds of the present disclosure are summarized and shown in Table 8 below along with the control percentages thereof. (©): less than 10%; ◯: 10% or more to less than 35%).

c-KIT D816V [2] = target: T3, c-KIT D816V; settings: background art; cited from earlier work

T3 sequence (P10721 26-976 D816V): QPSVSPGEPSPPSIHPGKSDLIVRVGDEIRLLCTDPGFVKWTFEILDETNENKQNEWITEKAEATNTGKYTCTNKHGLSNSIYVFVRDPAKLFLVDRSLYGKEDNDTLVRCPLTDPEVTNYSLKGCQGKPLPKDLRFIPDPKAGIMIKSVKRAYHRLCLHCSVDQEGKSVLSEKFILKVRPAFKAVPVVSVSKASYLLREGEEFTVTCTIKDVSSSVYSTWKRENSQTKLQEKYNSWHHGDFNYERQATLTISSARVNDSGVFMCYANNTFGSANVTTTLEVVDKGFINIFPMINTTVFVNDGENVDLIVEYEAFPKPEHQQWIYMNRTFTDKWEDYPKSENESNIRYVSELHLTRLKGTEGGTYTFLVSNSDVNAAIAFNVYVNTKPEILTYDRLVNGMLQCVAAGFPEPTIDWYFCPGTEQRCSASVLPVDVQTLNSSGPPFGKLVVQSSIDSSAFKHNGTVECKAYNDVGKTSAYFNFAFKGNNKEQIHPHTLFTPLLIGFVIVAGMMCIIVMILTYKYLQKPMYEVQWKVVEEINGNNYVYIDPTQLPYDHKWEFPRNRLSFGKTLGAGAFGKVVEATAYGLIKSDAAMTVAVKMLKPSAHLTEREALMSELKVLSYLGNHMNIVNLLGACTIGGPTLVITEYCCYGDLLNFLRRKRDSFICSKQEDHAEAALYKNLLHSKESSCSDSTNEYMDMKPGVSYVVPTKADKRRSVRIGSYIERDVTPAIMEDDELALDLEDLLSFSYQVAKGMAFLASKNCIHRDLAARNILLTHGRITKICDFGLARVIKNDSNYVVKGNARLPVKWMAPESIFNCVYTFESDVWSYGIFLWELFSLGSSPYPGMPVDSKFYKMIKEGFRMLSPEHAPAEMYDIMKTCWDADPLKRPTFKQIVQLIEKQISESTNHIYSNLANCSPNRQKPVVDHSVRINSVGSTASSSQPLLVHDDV
T2 sequence (P10721 26-976): as the sequence (P10721 26-976 D816V) above, with V791D counted along it
T1 sequence (P09619 33-1106): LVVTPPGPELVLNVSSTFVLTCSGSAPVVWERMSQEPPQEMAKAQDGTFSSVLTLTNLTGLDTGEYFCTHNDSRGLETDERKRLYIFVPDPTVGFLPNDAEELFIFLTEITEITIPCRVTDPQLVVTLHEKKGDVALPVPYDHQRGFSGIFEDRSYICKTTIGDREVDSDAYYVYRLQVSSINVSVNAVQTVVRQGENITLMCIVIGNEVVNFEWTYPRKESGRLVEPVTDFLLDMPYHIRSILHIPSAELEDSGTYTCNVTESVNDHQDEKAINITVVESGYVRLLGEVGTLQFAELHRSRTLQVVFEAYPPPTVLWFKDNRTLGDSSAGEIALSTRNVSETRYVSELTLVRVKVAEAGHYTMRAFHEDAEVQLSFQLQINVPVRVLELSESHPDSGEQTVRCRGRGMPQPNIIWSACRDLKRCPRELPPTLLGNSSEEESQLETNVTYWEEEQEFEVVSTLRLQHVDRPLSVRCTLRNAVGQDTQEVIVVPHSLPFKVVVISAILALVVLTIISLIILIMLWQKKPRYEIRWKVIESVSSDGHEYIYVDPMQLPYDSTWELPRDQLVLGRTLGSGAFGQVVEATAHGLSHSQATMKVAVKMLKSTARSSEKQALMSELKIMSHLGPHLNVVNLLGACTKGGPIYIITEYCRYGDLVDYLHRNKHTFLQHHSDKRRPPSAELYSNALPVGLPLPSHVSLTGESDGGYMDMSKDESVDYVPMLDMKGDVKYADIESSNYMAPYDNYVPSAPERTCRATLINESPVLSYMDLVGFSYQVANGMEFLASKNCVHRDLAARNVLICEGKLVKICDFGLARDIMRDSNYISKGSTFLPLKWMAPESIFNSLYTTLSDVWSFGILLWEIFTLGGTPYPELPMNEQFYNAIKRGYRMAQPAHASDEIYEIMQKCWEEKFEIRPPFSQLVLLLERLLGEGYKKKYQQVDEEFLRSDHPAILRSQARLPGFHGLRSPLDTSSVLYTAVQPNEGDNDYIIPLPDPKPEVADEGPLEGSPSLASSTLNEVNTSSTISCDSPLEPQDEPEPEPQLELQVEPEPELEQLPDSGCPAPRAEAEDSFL
T4 sequence (P16234 24-1089): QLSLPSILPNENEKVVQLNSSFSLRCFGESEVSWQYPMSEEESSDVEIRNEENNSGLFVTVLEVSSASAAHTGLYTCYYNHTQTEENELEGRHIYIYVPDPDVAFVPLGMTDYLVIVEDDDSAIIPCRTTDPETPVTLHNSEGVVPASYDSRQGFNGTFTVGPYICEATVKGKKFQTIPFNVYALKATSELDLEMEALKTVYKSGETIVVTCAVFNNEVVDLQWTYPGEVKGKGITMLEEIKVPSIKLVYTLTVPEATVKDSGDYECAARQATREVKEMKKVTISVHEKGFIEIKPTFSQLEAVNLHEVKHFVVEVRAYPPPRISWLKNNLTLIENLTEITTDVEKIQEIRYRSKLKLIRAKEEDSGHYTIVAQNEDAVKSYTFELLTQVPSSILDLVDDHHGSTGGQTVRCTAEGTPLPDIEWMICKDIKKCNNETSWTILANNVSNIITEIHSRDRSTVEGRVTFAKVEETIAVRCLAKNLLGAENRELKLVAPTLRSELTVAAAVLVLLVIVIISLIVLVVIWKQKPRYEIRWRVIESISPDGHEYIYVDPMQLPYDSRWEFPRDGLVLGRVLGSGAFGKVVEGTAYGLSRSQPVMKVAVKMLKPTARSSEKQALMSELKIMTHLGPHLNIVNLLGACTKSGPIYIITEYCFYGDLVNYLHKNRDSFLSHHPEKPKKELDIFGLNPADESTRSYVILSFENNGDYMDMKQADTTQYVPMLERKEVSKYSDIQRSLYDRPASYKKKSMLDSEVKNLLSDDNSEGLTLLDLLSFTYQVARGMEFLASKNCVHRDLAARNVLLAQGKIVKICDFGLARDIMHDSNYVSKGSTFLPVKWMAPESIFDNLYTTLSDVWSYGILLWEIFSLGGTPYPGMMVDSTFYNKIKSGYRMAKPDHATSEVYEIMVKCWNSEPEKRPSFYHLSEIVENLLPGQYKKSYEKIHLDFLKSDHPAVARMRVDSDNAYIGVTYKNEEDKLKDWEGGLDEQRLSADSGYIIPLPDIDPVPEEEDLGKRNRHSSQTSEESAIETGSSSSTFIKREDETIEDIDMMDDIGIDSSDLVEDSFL

Row | GI50 (Ba/F3-c-KIT(D816V)) [nM] | IC50 (human PDGFR-β(wt)) [nM] | IC50 (human c-KIT(wt)) [nM] | GI50 (Ba/F3-TEL-PDGFRα(WT)) [nM] | IC50 (c-KIT D816V [1]) [nM] | IC50 (human PDGFR-α(wt)) [nM] | GI50 (c-KIT V560G/D816V) [nM] | GI50 (Ba/F3-TEL-PDGFβ(WT)) [nM] | GI50 (c-KIT D814Y) [nM] | SMILES | further results
1 | ≤ 200 | ≤ 50 | ≤ 50 | ≤ 200 | ≤ 50 | ≤ 50 | ≤ 200 | ≤ 200 | ≤ 200 | CCN(CC)CCCOc1cc2ncnc(-c3ccc(NC(=O)Cc4ccc(C(F)(F)F)cc4)cc3)c2cc1OC [Example 11, N-(4-(7-(3-(diethylamino)propoxy)-6-methoxyquinazolin-4-yl)phenyl)-2-(4-(trifluoromethyl)phenyl)acetamide] | –
2 | – | ≤ 50 | ≤ 50 | ≤ 200 | ≤ 50 | ≤ 50 | ≤ 200 | ≤ 200 | – | COCCOc1cc2ncnc(-c3ccc(NC(=O)Cc4ccc(C(F)(F)F)cc4)cc3)c2cc1OCCOC [Example 57, N-(4-(6,7-bis(2-methoxyethoxy)quinazolin-4-yl)phenyl)-2-(4-(trifluoromethyl)phenyl)acetamide] | –

Continued, molecule first:

Row | SMILES | GI50 (Ba/F3-c-KIT(D816V)) [nM] | IC50 (human PDGFR-β(wt)) [nM] | IC50 (human c-KIT(wt)) [nM] | GI50 (Ba/F3-TEL-PDGFRα(WT)) [nM] | IC50 (c-KIT D816V [1]) [nM] | IC50 (human PDGFR-α(wt)) [nM] | GI50 (c-KIT V560G/D816V) [nM] | GI50 (Ba/F3-TEL-PDGFβ(WT)) [nM] | GI50 (c-KIT D814Y) [nM] | further results
3 | CCN(CC)CCOc1cc2ncnc(-c3ccc(NC(=O)Cc4ccc(C(F)(F)F)cc4)cc3)c2cc1OC [Example 1, N-(4-(7-(2-(diethylamino)ethoxy)-6-methoxyquinazolin-4-yl)phenyl)-2-(4-(trifluoromethyl)phenyl)acetamide] | ≤ 200 | ≤ 50 | ≤ 50 | ≤ 200 | ≤ 50 | ≤ 50 | ≤ 200 | ≤ 200 | – | –
4 | COc1cc2c(-c3ccc(NC(=O)Cc4ccc(C(F)(F)F)cc4)cc3)ncnc2cc1OC1CCN(C)CC1 [Example 2, N-(4-(6-methoxy-7-((1-methylpiperidin-4-yl)oxy)quinazolin-4-yl)phenyl)-2-(4-(trifluoromethyl)phenyl)acetamide] | ≤ 200 | ≤ 50 | ≤ 50 | ≤ 200 | ≤ 50 | ≤ 50 | 200 to 500 | ≤ 200 | – | –
5 | COc1cc2c(-c3ccc(NC(=O)Cc4ccc(C(F)(F)F)cc4)cc3)ncnc2cc1OCCN1CCN(C)CC1 [Example 3, N-(4-(6-methoxy-7-(2-(4-methylpiperazin-1-yl)ethoxy)quinazolin-4-yl)phenyl)-2-(4-(trifluoromethyl)phenyl)acetamide] | ≤ 200 | ≤ 50 | ≤ 50 | ≤ 200 | ≤ 50 | ≤ 50 | ≤ 200 | ≤ 200 | ≤ 200 | control percentage (% control), KIT (various kinases): ⊚; control percentage (% control), KIT (A829P) (various kinases): ⊚; control percentage (% control), KIT (D816H) (various kinases): ⊚; control percentage (% control), KIT (D816V) (various kinases): ⊚; control percentage (% control), KIT (L576P) (various kinases): ⊚; control percentage (% control), KIT (V559D) (various kinases): ⊚; control percentage (% control), KIT (V559D, T670I) (various kinases; KIT (V559D, T670I)): ◯ (◯: 10% or more to less than 35%); control percentage (% control), KIT (V559D, V654A) (various kinases; KIT (V559D, V654A)): ⊚; control percentage (% control), KIT-autoinhibited (various kinases; KIT-autoinhibited): ◯ (◯: 10% or more to less than 35%); control percentage (% control), PDGFRA (various kinases; PDGFRA): ⊚; control percentage (% control), PDGFRB (various kinases; PDGFRB): ⊚
6 | COc1cc2c(-c3ccc(NC(=O)Cc4ccc(C(F)(F)F)cc4)cc3)ncnc2cc1OCCCN1CCN(C)CC1 [Example 9, N-(4-(6-methoxy-7-(3-(4-methylpiperazin-1-yl)propoxy)quinazolin-4-yl)phenyl)-2-(4-(trifluoromethyl)phenyl)acetamide] | ≤ 200 | ≤ 50 | ≤ 50 | ≤ 200 | ≤ 50 | ≤ 50 | ≤ 200 | ≤ 200 | ≤ 200 | control percentage (% control), KIT (various kinases): ⊚; control percentage (% control), KIT (A829P) (various kinases): ⊚; control percentage (% control), KIT (D816H) (various kinases): ⊚; control percentage (% control), KIT (D816V) (various kinases): ⊚; control percentage (% control), KIT (L576P) (various kinases): ◯ (◯: 10% or more to less than 35%); control percentage (% control), KIT (V559D) (various kinases): ◯ (◯: 10% or more to less than 35%)
7 | Cc1ccc(NC(=O)c2ccc(CN3CCN(C)CC3)cc2)cc1Nc1nccc(-c2cccnc2)n1 [imatinib] | – | – | – | – | – | – | – | – | – | effect of inhibiting c-KIT D816V (c-KIT D816V [2]): no effect
